Paper PMC4250329 (Bioorganic & medicinal chemistry letters, 2014)
Entries after “also recorded” stand apart in the source; their conditions may differ. Read-outs that look alike come from different tables or passages of the source.

Columns and labels:
JAK1 = assay: Western blot of pJAK1/JAK1; format: cell-based; settings: Western blot analysis
JAK2 = assay: Western blot of pJAK2/JAK2; format: cell-based; settings: Western blot analysis
[1] = system: four HNSCC cell lines (CAL33, FADU, 686 LN, OSC19); assay: Anti-proliferative activity in panel of HNSCC cell lines; format: cell-based
panel of >80 kinases = assay: Kinase panel; format: biochemical; settings: data not shown
[2] = system: IFNγ-induced activation of the STAT1 pathway; assay: HCS of IFNγ-induced STAT1 pathway activation; settings: for inhibition at 50 µM: read-out: inhibition of IFNγ-induced STAT1 activation
[3] = system: IL-6-induced STAT3 tyrosine phosphorylation and nuclear translocation; assay: High content screen; format: cell-based; settings: for SI (STAT1/STAT3), selectivity index ratio: Table 3; for selectivity against pSTAT1 / activity (STAT3): summary of Table 3
[4] = read-out: anti-proliferative activity

Q: Which results are given for `CCOc1ccc2nc(NC3=NC(C)=CC(C)(C)N3)nc(C)c2c1` [11a, 6-ethoxy-4-methylquinazoline-2-amino-dihydro-trimethylpyrimidine]?
A: effects on pJAK1/JAK1 (JAK1): no effects; also recorded: did not show any effects; effects on pJAK2/JAK2 (JAK2): no effects; also recorded: did not show any effects; IC50 ([1]; read-out: anti-proliferative activities IC50's): 17 to 37 µM; activity against a panel of >80 kinases (panel of >80 kinases): did not exhibit any significant activity; effect on IFNγ-induced activation of the STAT1 pathway ([2]; at 50 μM): no effect; inhibition at 50 µM [2]: < 50%

Q: How did the “improved potency compared to the original hit 11a” value ([3]; STAT3, text b9) turn out when `CC1=CC(C)(C)N=C(Nc2nc(C)c3cc(C)ccc3n2)N1` [11b] was run?
A: The value was 4 fold.

Q: And the “potency against STAT3” value ([3]; summary b20)?
A: The value was “low-micromolar potency”.

Q: What about the IC50 [1, 4] of the same compound?
A: The IC50 was 1 to 50 µM.

Q: And the inhibition at 50 µM [2]?
A: The inhibition at 50 µM was less than 50%.

Q: For `CC1=CC(C)(C)N=C(Nc2nc(C)c3cc(C)cc(C)c3n2)N1` [11c], which “potency against STAT3” value ([3]; summary b20) is on record?
A: Its value is “low-micromolar potency”.

Q: And the “improvement in STAT3 inhibition” value ([3]; versus 11a)?
A: The value was 20 fold.

Q: And the IC50 [1, 4]?
A: Its IC50 is 1 to 50 µM.

Q: With `CCOc1ccc2c(C)nc(NC3=NC(C)=CC(C)(C)N3)nc2c1` [11d] as the compound, how does the inhibition at 50 µM [2] read?
A: Its inhibition at 50 µM is less than 50%.

Q: For `Cc1cc(C)c2nc(Nc3nc(C)c(C)c(O)n3)nc(C)c2c1` [19b], which “SI (STAT1/STAT3), selectivity index ratio” value [3] is on record?
A: Its value is greater than 7.

Q: What about the “selectivity against pSTAT1” value [3] of the same compound?
A: Its value is no less than 3 fold.

Q: Which “activity (STAT3)” value [3] does the source give for `CCOc1ccc2nc(Nc3nc(=O)cc(C)[nH]3)nc(C)c2c1` [19e] here?
A: Its value is “completely abolished activity”.

Q: How did the “selectivity against pSTAT1” value [3] turn out when `Cc1cc2nc(Nc3nc(=O)c(C)c(C)[nH]3)nc(C)c2cc1C` [19n] was run?
A: The value was no less than 3 fold.

Q: Which “activity (STAT3)” value [3] does the source give for `Cc1[nH]c(Nc2nc(C)c3cc4c(cc3n2)OCO4)nc(=O)c1C` [19p] here?
A: The value was “completely abolished activity”.

Q: For `Cc1nc(Nc2nc(=O)cc(-c3ccccc3)[nH]2)nc2cc3c(cc12)OCO3` [19q], which “SI (STAT1/STAT3), selectivity index ratio” value [3] is on record?
A: The value was greater than 3.

Q: How did the “potency against STAT3” value [3] turn out when `CC(C)(C)c1nc2c3ccc(F)cc3c3c(=O)[nH]ccc3c2[nH]1` [compound 6, reference compound] was run?
A: Its value is “nanomolar potencies”.

Q: And the “potency against STAT1” value [2]?
A: Its value is “nanomolar potencies”.
